Laboratory results taken from patent publication US20160137714A1 (Thrasos Innovation, Inc., priority 2014, published 2016).
Positions of bridges follow the written chain, without caps; N, C: chain ends. Non-standard residues stand in square brackets, D forms with d. Residues, ends and D or L forms follow the SMILES beside them. NMeR = CN[C@@H](CCCNC(=N)N)C(=O)O

Assay: Ex-vivo plasma stability
Assay type: in vitro ADME, mouse or rat
Conditions: for remaining at 1 h / remaining at 2 h: fresh plasma 37° C., 1 μM; for remaining at 1 h: 60 min, read-out: Percent remaining 60 min; for remaining at 2 h: 120 min, read-out: Percent remaining 120 min; for stability toward plasma proteolytic cleavage: versus THR-123, rat plasma (FIGS. 3 and 4)
Protocol: Test article is added to fresh mouse or rat plasma at a final in-vial concentration of 1 μM. The peptide is incubated in a water bath at 37° C. over a time course that included the following points (in minutes): 0, 15, 30, 60, 120, 240, and 1440. After the incubation time is completed, a 50 μL aliquot of plasma is removed and proteins are precipitated using a solution containing internal standard (THR-123 at 150 ng/mL) in methanol with 0.5% acetic acid (v/v). The samples are centrifuged at 13,000 RPM for 5 minutes, and a 100 μL aliquot of supernatant is removed and transferred to a 96-well plate containing 200 μL of reconstitution solution (Water/MeOH/Acetic Acid/TFA, 60/40/0.2/0.05, v/v/v/v). A calibration curve and quality control (QC) samples are prepared in parallel in the same manner as the incubation samples. The calibration range for this assay is from 0.02 to 2.0 μM in rat or mouse plasma. The extracted calibrants, QC, and incubation samples are injected onto an AB SCIEX API 2000 LC-MS/MS system. Chromatographic separation is performed using a reversed-phase C18 HPLC column (Ace-3 C18, 30×2.1 mm, 3 μm). The solvent system consists of Milli-Q water, acetonitrile and formic acid. Analyte and internal standard are detected using the multiple reaction monitoring (MRM) scan mode. Calibration curves are generated by using a weighted (1/concentration) quadratic regression analysis of the peak area ratios (analyte/internal standard) versus the nominal concentration of the calibration standards. The concentration of the analyte in the incubation samples is determined by back-calculating the peak area ratios obtained using the quadratic regression.

Compound | remaining at 1 h | remaining at 2 h | stability toward plasma proteolytic cleavage
CC(C)C[C@@H]1NC(=O)[C@H](C(C)C)NC(=O)[C@H](CO)NC(=O)[C@H](CO)NC(=O)[C@H](CO)NC(=O)[C@H](CC(N)=O)NC(=O)[C@H](CC(=O)O)NC(=O)[C@H](Cc2ccc(O)cc2)NC(=O)[C@H](Cc2ccc(O)cc2)NC(=O)[C@@H](N)CSSC[C@@H](C(=O)N[C@@H](CCCCN)C(=O)N[C@@H](CCCNC(=N)N)C(=O)N[C@@H](Cc2ccc(O)cc2)C(=O)N[C@@H](CCCNC(=N)N)C(=O)N[C@@H](CO)C(=O)O)NC1=O [GPR-259, Cys-Tyr-Tyr-Asp-Asn-Ser-Ser-Ser-Val-Leu-Cys-Lys-Arg-Tyr-Arg-Ser] (H-CYYDNSSSVLCKRYRS-OH; disulfide 1-11) | 4% | 2.5% | –
CC(C)C[C@@H]1NC(=O)[C@H](C(C)C)NC(=O)[C@H](CO)NC(=O)[C@H](CO)NC(=O)[C@H](CO)NC(=O)[C@H](CC(=O)O)NC(=O)[C@H](CC(=O)O)NC(=O)[C@H](Cc2ccc(O)cc2)NC(=O)[C@H](Cc2ccc(O)cc2)NC(=O)[C@@H](N)CSSC[C@@H](C(=O)N[C@@H](CCCCN)C(=O)N[C@@H](CCCCN)C(=O)N[C@@H](Cc2ccc(O)cc2)C(=O)N[C@@H](CCCNC(=N)N)C(=O)N[C@@H](CO)C(=O)O)NC1=O [GPR-267, Cys-Tyr-Tyr-Asp-Asp-Ser-Ser-Ser-Val-Leu-Cys-Lys-Lys-Tyr-Arg-Ser] (H-CYYDDSSSVLCKKYRS-OH; disulfide 1-11) | 1.5% | 0% | –
CC(C)C[C@@H]1NC(=O)[C@H](C(C)C)NC(=O)[C@H](CO)NC(=O)[C@H](CO)NC(=O)[C@H](CO)NC(=O)[C@H](CC(N)=O)NC(=O)[C@H](CC(=O)O)NC(=O)[C@H](Cc2ccc(O)cc2)NC(=O)[C@H](Cc2ccc(O)cc2)NC(=O)[C@@H](N)CSSC[C@@H](C(=O)N[C@@H](CCCCN)C(=O)N[C@@H](CCCCN)C(=O)N[C@@H](Cc2ccc(O)cc2)C(=O)N[C@@H](CCCNC(=N)N)C(=O)N[C@@H](CO)C(=O)O)NC1=O [GPR-269, Cys-Tyr-Tyr-Asp-Asn-Ser-Ser-Ser-Val-Leu-Cys-Lys-Lys-Tyr-Arg-Ser] (H-CYYDNSSSVLCKKYRS-OH; disulfide 1-11) | 9.9% | 6.8% | –
CC(C)C[C@@H]1NC(=O)[C@H](C(C)C)NC(=O)[C@H](CO)NC(=O)[C@H](CO)NC(=O)[C@H](CO)NC(=O)[C@H](CC(N)=O)NC(=O)[C@H](CC(=O)O)NC(=O)[C@H](Cc2ccc(O)cc2)NC(=O)[C@H](Cc2ccc(O)cc2)NC(=O)[C@@H](N)CSSC[C@@H](C(=O)N[C@@H](CCCCN)C(=O)N[C@@H](CCCNC(=N)N)C(=O)N[C@H](Cc2ccc(O)cc2)C(=O)N[C@@H](CCCNC(=N)N)C(=O)N[C@@H](CO)C(=O)O)NC1=O [GPR-279, Cys-Tyr-Tyr-Asp-Asn-Ser-Ser-Ser-Val-Leu-Cys-Lys-Arg-D-tyr-Arg-Ser] (H-CYYDNSSSVLCKR[dY]RS-OH; disulfide 1-11) | 89.1% | 77.8% | –
CC(C)C[C@@H]1NC(=O)[C@H](C(C)C)NC(=O)[C@H](CC(N)=O)NC(=O)[C@H](CO)NC(=O)[C@H](CO)NC(=O)[C@H](CC(=O)O)NC(=O)[C@H](CC(=O)O)NC(=O)[C@H](Cc2ccccc2)NC(=O)[C@H](Cc2ccc(O)cc2)NC(=O)[C@@H](N)CSSC[C@@H](C(=O)N[C@@H](CCCCN)C(=O)N[C@@H](CCCNC(=N)N)C(=O)N[C@@H](Cc2ccc(O)cc2)C(=O)N[C@@H](CCCNC(=N)N)C(=O)N[C@@H](CO)C(=O)O)NC1=O [GPR-293, Cys-Tyr-Phe-Asp-Asp-Ser-Ser-Asn-Val-Leu-Cys-Lys-Arg-Tyr-Arg-Ser] (H-CYFDDSSNVLCKRYRS-OH; disulfide 1-11) | 3.5% | 1.6% | –

Further lines, results first:

remaining at 1 h | remaining at 2 h | stability toward plasma proteolytic cleavage | Compound
92.2% | 94.7% | – | CC(C)C[C@@H]1NC(=O)[C@H](C(C)C)NC(=O)[C@H](CO)NC(=O)[C@H](CO)NC(=O)[C@H](CO)NC(=O)[C@H](CC(=O)O)NC(=O)[C@H](CC(=O)O)NC(=O)[C@H](Cc2ccc(O)cc2)NC(=O)[C@H](Cc2ccc(O)cc2)NC(=O)[C@@H](N)CSSC[C@@H](C(=O)N[C@@H](CCCCN)C(=O)N[C@@H](CCCCN)C(=O)N[C@H](Cc2ccc(O)cc2)C(=O)N[C@@H](CCCNC(=N)N)C(=O)N[C@@H](CO)C(=O)O)NC1=O [GPR-295, Cys-Tyr-Tyr-Asp-Asp-Ser-Ser-Ser-Val-Leu-Cys-Lys-Lys-D-tyr-Arg-Ser] (H-CYYDDSSSVLCKK[dY]RS-OH; disulfide 1-11)
97.5% | 86.4% | – | CC(C)C[C@@H]1NC(=O)[C@H](C(C)C)NC(=O)[C@H](CO)NC(=O)[C@H](CO)NC(=O)[C@H](CO)NC(=O)[C@H](CC(N)=O)NC(=O)[C@H](CC(=O)O)NC(=O)[C@H](Cc2ccc(O)cc2)NC(=O)[C@H](Cc2ccc(O)cc2)NC(=O)[C@@H](N)CSSC[C@@H](C(=O)N[C@@H](CCCCN)C(=O)N[C@@H](CCCCN)C(=O)N[C@H](Cc2ccc(O)cc2)C(=O)N[C@@H](CCCNC(=N)N)C(=O)N[C@@H](CO)C(=O)O)NC1=O [GPR-296, Cys-Tyr-Tyr-Asp-Asn-Ser-Ser-Ser-Val-Leu-Cys-Lys-Lys-D-tyr-Arg-Ser] (H-CYYDNSSSVLCKK[dY]RS-OH; disulfide 1-11)
77.6% | 64.2% | enhanced | CC(C)C[C@@H]1NC(=O)[C@H](C(C)C)NC(=O)[C@H](CC(N)=O)NC(=O)[C@H](CO)NC(=O)[C@H](CO)NC(=O)[C@H](CC(=O)O)NC(=O)[C@H](CC(=O)O)NC(=O)[C@H](Cc2ccccc2)NC(=O)[C@H](Cc2ccc(O)cc2)NC(=O)[C@@H](N)CSSC[C@@H](C(=O)N[C@@H](CCCCN)C(=O)N[C@H](CCCCN)C(=O)N[C@@H](Cc2ccc(O)cc2)C(=O)N[C@@H](CCCNC(=N)N)C(=O)N[C@@H](CO)C(=O)O)NC1=O [GPR-388, Cys-Tyr-Phe-Asp-Asp-Ser-Ser-Asn-Val-Leu-Cys-Lys-(D)lys-Tyr-Arg-Ser] (H-CYFDDSSNVLCK[dK]YRS-OH; disulfide 1-11)
58.5% | 46.1% | enhanced | CC(C)C[C@@H]1NC(=O)[C@H](C(C)C)NC(=O)[C@H](CC(N)=O)NC(=O)[C@H](CO)NC(=O)[C@H](CO)NC(=O)[C@H](CC(=O)O)NC(=O)[C@H](CC(=O)O)NC(=O)[C@H](Cc2ccccc2)NC(=O)[C@H](Cc2ccc(O)cc2)NC(=O)[C@@H](N)CSSC[C@@H](C(=O)N[C@@H](CCCCN)C(=O)N[C@@H](CCCCN)C(=O)N[C@@H](Cc2ccc(O)cc2)C(=O)N[C@H](CCCNC(=N)N)C(=O)N[C@@H](CO)C(=O)O)NC1=O [GPR-389, Cys-Tyr-Phe-Asp-Asp-Ser-Ser-Asn-Val-Leu-Cys-Lys-Lys-Tyr-D-arg-Ser] (H-CYFDDSSNVLCKKY[dR]S-OH; disulfide 1-11)
91% | 82.4% | enhanced | CC(C)C[C@@H]1NC(=O)[C@H](C(C)C)NC(=O)[C@H](CC(N)=O)NC(=O)[C@H](CO)NC(=O)[C@H](CO)NC(=O)[C@H](CC(=O)O)NC(=O)[C@H](CC(=O)O)NC(=O)[C@H](Cc2ccccc2)NC(=O)[C@H](Cc2ccc(O)cc2)NC(=O)[C@@H](N)CSSC[C@@H](C(=O)N[C@@H](CCCCN)C(=O)N[C@@H](CCCCN)C(=O)N[C@@H](Cc2ccc(O)cc2)C(=O)N(C)[C@@H](CCCNC(=N)N)C(=O)N[C@@H](CO)C(=O)O)NC1=O [GPR-396, Cys-Tyr-Phe-Asp-Asp-Ser-Ser-Asn-Val-Leu-Cys-Lys-Lys-Tyr-(Na-Me)Arg-Ser] (H-CYFDDSSNVLCKKY[NMeR]S-OH; disulfide 1-11)
92% | 89.3% | – | CC(C)C[C@@H]1NC(=O)[C@H](C(C)C)NC(=O)[C@H](CC(N)=O)NC(=O)[C@H](CO)NC(=O)[C@H](CO)NC(=O)[C@H](CC(=O)O)NC(=O)[C@H](CC(=O)O)NC(=O)[C@H](Cc2ccccc2)NC(=O)[C@H](Cc2ccc(O)cc2)NC(=O)[C@@H](N)CSSC[C@@H](C(=O)N[C@@H](CCCCN)C(=O)N[C@@H](CCCNC(=N)N)C(=O)N[C@H](Cc2ccc(O)cc2)C(=O)N[C@@H](CCCNC(=N)N)C(=O)N[C@@H](CO)C(=O)O)NC1=O [GPR-397, Cys-Tyr-Phe-Asp-Asp-Ser-Ser-Asn-Val-Leu-Cys-Lys-Arg-D-tyr-Arg-Ser] (H-CYFDDSSNVLCKR[dY]RS-OH; disulfide 1-11)
79.2% | 68.1% | – | CC(C)C[C@@H]1NC(=O)[C@H](C(C)C)NC(=O)[C@H](CO)NC(=O)[C@H](CO)NC(=O)[C@H](CO)NC(=O)[C@H](CC(N)=O)NC(=O)[C@H](CC(=O)O)NC(=O)[C@H](Cc2ccc(O)cc2)NC(=O)[C@H](Cc2ccc(O)cc2)NC(=O)[C@@H](N)CSSC[C@@H](C(=O)N[C@@H](CCCCN)C(=O)N[C@@H](CCCNC(=N)N)C(=O)N[C@@H](Cc2ccc(O)cc2)C(=O)N(C)[C@@H](CCCNC(=N)N)C(=O)N[C@@H](CO)C(=O)O)NC1=O [GPR-398, Cys-Tyr-Tyr-Asp-Asn-Ser-Ser-Ser-Val-Leu-Cys-Lys-Arg-Tyr-(Nα-Me)Arg-Ser] (H-CYYDNSSSVLCKRY[NMeR]S-OH; disulfide 1-11)
